In this experiment the test system is BDF1 mice, colon carcinoma 38 sc, T/C %. In words: NCI In Vivo Anticancer Drug Screen. Data for tumor model Colon Carcinoma 38 (subcutaneous) in B6D2F1 (BDF1) mice. The conditions noted are these: endpoint: median tumor weight (est.), schedule: Q07DX002 (ip), higher = larger tumour. The method, boiled down:
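Ratio of survival or tumor size, compound-treated animals relative to vehicle controls, in tumor-bearing mice.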

Where [1] appears, read: dose: 25.0 mg/kg/injection, vehicle: saline.
The mark [2] stands for this setting: dose: 25.0 mg/kg/injection, vehicle: suspension in saline.
Setting [3] is: dose: 50.0 mg/kg/injection, vehicle: saline.
The mark [4] stands for this setting: dose: 50.0 mg/kg/injection, vehicle: suspension in saline.
[5] abbreviates: dose: 100.0 mg/kg/injection, vehicle: saline.
[6] abbreviates: dose: 12.5 mg/kg/injection, vehicle: Klucel (hydroxypropylcellulose) (HPC).
The mark [7] stands for this setting: dose: 25.0 mg/kg/injection, vehicle: Klucel (hydroxypropylcellulose) (HPC).
The mark [8] stands for this setting: dose: 50.0 mg/kg/injection, vehicle: Klucel (hydroxypropylcellulose) (HPC).
[9] abbreviates: dose: 50.0 mg/kg/injection, vehicle: saline with Tween-80.
[10] abbreviates: dose: 100.0 mg/kg/injection, vehicle: saline with Tween-80.
The mark [11] stands for this setting: dose: 3.12 mg/kg/injection, vehicle: saline.
[12] abbreviates: dose: 6.25 mg/kg/injection, vehicle: saline.
The mark [13] stands for this setting: dose: 12.5 mg/kg/injection, vehicle: saline.

Where “and” joins values, the source holds several entries; their conditions need not be identical. Identical values can stand only once. Results filed as inconclusive are left out.

This is an account of results in PubChem BioAssay AID212 (DTP/NCI, 2004).

Turning to `Cn1cnc([N+](=O)[O-])c1Sc1ncn[nH]1`, the T/C was 78 % of control under setting [1]; 112 % of control under setting [2]; 73 % of control under setting [3]; 118 % of control under setting [4]; 79 % of control under setting [5]; 85 % of control (dose: 100.0 mg/kg/injection, vehicle: suspension in saline). In addition, the T/C by setting is: (dose: 200.0 mg/kg/injection, vehicle: saline) 52 % of control; (dose: 400.0 mg/kg/injection, vehicle: saline) 65 % of control; (dose: 400.0 mg/kg/injection, vehicle: suspension in saline) 107 % of control; (dose: 800.0 mg/kg/injection, vehicle: saline) 84 % of control.
As to `CCc1ccc(C2=C(O)C(=O)C(c3ccccc3)=C(O)C2=O)cc1`, the T/C is, setting by setting: under setting [6], 101 % of control; under setting [7], 81 % of control; under setting [8], 50 % of control.
With `CCCCCCCC(=O)OCC(=O)[C@]1(O)Cc2c(O)c3c(c(O)c2[C@@H](OC2CC(N)C(O)C(C)O2)C1)C(=O)c1c(OC)cccc1C3=O` (stereo partly specified), the T/C by setting is: (dose: 2.0 mg/kg/injection, vehicle: suspension in saline) 75 % of control; (dose: 4.0 mg/kg/injection, vehicle: suspension in saline) 70 % of control; (dose: 8.0 mg/kg/injection, vehicle: suspension in saline) 37 % of control.
On to `O=C(O)/C=C/C(=O)N1Cc2cc3ccccc3nc2C1`, for which the T/C is 84 % of control (dose: 12.5 mg/kg/injection, vehicle: saline with Tween-80); 89 % of control under setting [9]; 173 % of control under setting [10]; 104 % of control (dose: 200.0 mg/kg/injection, vehicle: saline with Tween-80).
As for `Nc1ccc(C(=O)O)c(O)c1`, the T/C by setting is: (dose: 42.0 mg/kg/injection, vehicle: saline with Tween-80) 120 % of control; (dose: 84.0 mg/kg/injection, vehicle: saline with Tween-80) 89 % of control; (dose: 168.0 mg/kg/injection, vehicle: saline with Tween-80) 93 % of control; (dose: 337.0 mg/kg/injection, vehicle: saline with Tween-80) 80 % of control; (dose: 675.0 mg/kg/injection, vehicle: saline with Tween-80) 111 % of control.
Consider `C1CNCOC1`, for which the T/C by setting is: under setting [1], 108 % of control; under setting [5], 115 % of control.
Turning to `CC(C)NC(=O)OCc1c(COC(=O)NC(C)C)c(-c2ccc(Cl)c(Cl)c2)n2c1CCC2`, the T/C (dose: 12.5 mg/kg/injection, vehicle: distilled water + Tween-80) is 82 % of control and 99 % of control; the T/C (dose: 25.0 mg/kg/injection, vehicle: distilled water + Tween-80) was 114 % of control and 94 % of control and 107 % of control; the T/C (dose: 50.0 mg/kg/injection, vehicle: distilled water + Tween-80) was 53 % of control and 67 % of control.
As to `Cc1c2cc[n+](C)cc2c(C)c2c1[nH]c1ccc(O)cc12`, the T/C was 119 % of control (dose: 0.12 mg/kg/injection, vehicle: water); 62 % of control (dose: 0.25 mg/kg/injection, vehicle: water); 69 % of control (dose: 0.5 mg/kg/injection, vehicle: water); 67 % of control (dose: 0.63 mg/kg/injection, vehicle: water); 123 % of control (dose: 1.0 mg/kg/injection, vehicle: water); 52 % of control (dose: 1.25 mg/kg/injection, vehicle: water). Also, the T/C was 116 % of control (dose: 1.5 mg/kg/injection, vehicle: water); 72 % of control (dose: 2.5 mg/kg/injection, vehicle: water); 122 % of control (dose: 3.0 mg/kg/injection, vehicle: water); 70 % of control (dose: 4.0 mg/kg/injection, vehicle: water); 71 % of control (dose: 5.0 mg/kg/injection, vehicle: water).
In the case of `CC[PH+](CC)CC[S-].CC[PH+](CC)CC[S-].[Au+].[Au+]`, the T/C (dose: 5.0 mg/kg/injection, vehicle: Klucel (hydroxypropylcellulose) (HPC)) was 67 % of control; the T/C (dose: 10.0 mg/kg/injection, vehicle: Klucel (hydroxypropylcellulose) (HPC)) is 89 % of control; the T/C (dose: 20.0 mg/kg/injection, vehicle: Klucel (hydroxypropylcellulose) (HPC)) was 78 % of control; the T/C (dose: 40.0 mg/kg/injection, vehicle: Klucel (hydroxypropylcellulose) (HPC)) was 57 % of control.
Turning to `COc1cc(C(=O)c2cc3c(cc2C)OCO3)cc(OC)c1OC`, the T/C was 77 % of control under setting [6]; 75 % of control and 84 % of control under setting [7]; 112 % of control and 95 % of control under setting [8]; 79 % of control and 102 % of control (dose: 200.0 mg/kg/injection, vehicle: Klucel (hydroxypropylcellulose) (HPC)).
`Brc1c(NC2=NCCN2)ccc2nccnc12`: the T/C by setting is: under setting [11], 87 % of control; under setting [12], 98 % of control; under setting [13], 92 % of control; under setting [1], 82 % of control; under setting [3], 72 % of control; under setting [5], 75 % of control.
For the compound `CC[N](CC)[Ge]([CH2]C)[CH2]C.CC[N](CC)[Ge]([CH2]C)[CH2]C`, the T/C runs as follows: under setting [12], 87 % of control; (dose: 6.25 mg/kg/injection, vehicle: suspension in saline) 77 % of control; under setting [13], 77 % of control; (dose: 12.5 mg/kg/injection, vehicle: suspension in saline) 69 % of control; under setting [1], 79 % of control; under setting [2], 95 % of control. For the same compound, the T/C is, setting by setting: under setting [3], 77 % of control; under setting [4], 84 % of control; under setting [5], 61 % of control.
As for `Cc1cc(=O)n2c3c(c4c(cc13)c(CN(C)C)cc(=O)n4C)OC2`, the T/C (dose: 25.0 mg/kg/injection, vehicle: saline with Tween-80) was 73 % of control; the T/C under setting [9] was 56 % of control; the T/C under setting [10] is 45 % of control.
Take `O=CC(O)C(O)C(O)C(O)C(=O)O.[NH-]C1CCCCC1[NH-].[Pt+2]` (stereo unspecified): the T/C under setting [11] was 56 % of control; the T/C under setting [12] was 23 % of control and 24 % of control and 34 % of control; the T/C under setting [13] was 10 % of control and 22 % of control and 34 % of control; the T/C under setting [1] was 12 % of control and 15 % of control.
